Assay [1] concerns the target T1, Long-chain-fatty-acid--AMP ligase FadD28 (Mycobacterium tuberculosis, UniProt P9WQ59).
T1 sequence (P9WQ59 whole entry): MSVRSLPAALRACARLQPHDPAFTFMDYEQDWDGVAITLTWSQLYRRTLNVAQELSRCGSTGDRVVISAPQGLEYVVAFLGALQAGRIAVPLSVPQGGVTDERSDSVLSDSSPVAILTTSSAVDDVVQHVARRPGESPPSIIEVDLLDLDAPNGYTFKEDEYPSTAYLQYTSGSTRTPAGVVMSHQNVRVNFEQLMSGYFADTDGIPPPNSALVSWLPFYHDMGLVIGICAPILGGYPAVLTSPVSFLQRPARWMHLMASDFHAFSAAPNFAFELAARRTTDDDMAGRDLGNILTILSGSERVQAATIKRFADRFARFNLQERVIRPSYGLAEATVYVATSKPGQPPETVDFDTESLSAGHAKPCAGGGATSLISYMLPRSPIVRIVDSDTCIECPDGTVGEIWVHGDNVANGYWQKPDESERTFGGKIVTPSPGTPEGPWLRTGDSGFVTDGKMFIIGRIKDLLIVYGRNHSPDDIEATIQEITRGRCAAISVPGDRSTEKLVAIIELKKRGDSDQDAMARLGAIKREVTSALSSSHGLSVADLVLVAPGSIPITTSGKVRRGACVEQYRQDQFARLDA
The assay is described as follows: Fluorescence polarization aasay to screen for inhibitors that compete for the binding of FadD28 to a bisubstrate Measured in Biochemical System Using Plate Reader - 2147-01_Inhibitor_Dose_CherryPick_Activity. It is filed as functional, Mycobacterium tuberculosis H37Rv.

For assay [2], the target named is Neuropeptide Y receptor type 2 (Homo sapiens, UniProt P49146). The assay is described as follows: Fluorescence-based counterscreen for agonists of NPY-Y1: cell-based high-throughput dose response assay for agonists of NPY-Y2. It is filed as functional. On the technique in general: The purpose of a counterscreen is to sort out artefacts and off-target activity.
Sequence of Neuropeptide Y receptor type 2 (P49146 whole entry): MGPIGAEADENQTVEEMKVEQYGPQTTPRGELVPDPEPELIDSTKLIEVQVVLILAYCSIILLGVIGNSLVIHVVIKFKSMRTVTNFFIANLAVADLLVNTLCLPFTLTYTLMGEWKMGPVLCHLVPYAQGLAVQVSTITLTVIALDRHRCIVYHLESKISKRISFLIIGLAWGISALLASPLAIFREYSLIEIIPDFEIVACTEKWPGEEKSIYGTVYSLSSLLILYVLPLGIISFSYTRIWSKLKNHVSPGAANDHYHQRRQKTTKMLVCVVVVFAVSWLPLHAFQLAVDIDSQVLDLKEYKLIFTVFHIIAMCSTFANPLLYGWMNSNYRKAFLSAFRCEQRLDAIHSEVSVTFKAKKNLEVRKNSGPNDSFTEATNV
Assay [3] can be described thus: HepG2 cell cytotoxicity, dose response, cytotoxicity control, ATP luminescence, cherry-pick, activator set 2 (AID 1053143). It is filed as functional, cell-based.
Assay [4] has as its system HEK293. The assay is described as follows: Fluorescence-based counterscreen for potentiators or agonists of NPY-Y1: cell-based high-throughput dose response assay for inhibitors of cyclic nucleotide gated ion channel (CNGC) activity. In this assay, the parental HEK293 cell line transfected with a cyclic-nucleotide gated ion channel (CNGC)-based cAMP sensor is used to measure inhibition of isoproterenol-induced CNGC …. It counts as functional. Conditions: Homo sapiens.

Assay [5] concerns Vero. Put plainly: cells. It counts as functional. As to conditions: Chlorocebus sabaeus.
In assay [6] the target is Neuropeptide Y receptor type 1 (Homo sapiens, UniProt P25929). The assay is described as follows: Fluorescence-based dose response cell-based high-throughput screening assay for agonists of NPY-Y1. [Related pubchem assays: 1697 (Screening assay (NPY-Y1 agonists).), 1359 (Screening assay (NPY-Y2 potentiators or agonists).), 1304 (Screening assay (NPY-Y1 potentiators or agonists).), 1704 (Screening assay (CNGC inhibitors).), 1791 (Summary AID.)]. It is filed as functional.
Sequence of Neuropeptide Y receptor type 1 (P25929 whole entry): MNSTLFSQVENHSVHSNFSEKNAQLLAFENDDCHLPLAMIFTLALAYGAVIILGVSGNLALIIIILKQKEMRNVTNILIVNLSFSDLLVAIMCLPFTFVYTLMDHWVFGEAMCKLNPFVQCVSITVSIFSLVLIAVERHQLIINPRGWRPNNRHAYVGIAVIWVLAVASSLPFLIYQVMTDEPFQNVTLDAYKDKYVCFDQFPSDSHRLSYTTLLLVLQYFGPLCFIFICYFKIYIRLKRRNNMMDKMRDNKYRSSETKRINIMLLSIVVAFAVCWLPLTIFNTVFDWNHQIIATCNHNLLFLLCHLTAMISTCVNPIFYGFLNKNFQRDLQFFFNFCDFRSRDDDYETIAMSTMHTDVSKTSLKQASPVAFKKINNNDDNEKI

For assay [7], the system named is Vero. The assay is described as follows: cells. As to conditions: Chlorocebus sabaeus. It is filed as functional, cell-based.
Assay [8] addresses Interleukin-8 (Homo sapiens, UniProt P10145). The assay is described as follows: SAR analysis of tumor necrosis factor alpha (TNF-alpha) induced IL-8 secretion in MCF-7/NOD1 cells. [Related pubchem assays (depositor defined):AID1575, AID2250, AID2260]. It is filed as functional, cell-based.
In assay [9] the target is T2, Eukaryotic translation initiation factor 2-alpha kinase 3 (Homo sapiens, UniProt Q9NZJ5). The assay is described as follows: Counterscreen assay for PERK inhibitors: Dose response cell-based high throughput screening assay to measure inhibition of PERK at 6 hours. [Related pubchem assays: 1522, 1416 ]. It is filed as functional.
T2 sequence (Q9NZJ5 whole entry): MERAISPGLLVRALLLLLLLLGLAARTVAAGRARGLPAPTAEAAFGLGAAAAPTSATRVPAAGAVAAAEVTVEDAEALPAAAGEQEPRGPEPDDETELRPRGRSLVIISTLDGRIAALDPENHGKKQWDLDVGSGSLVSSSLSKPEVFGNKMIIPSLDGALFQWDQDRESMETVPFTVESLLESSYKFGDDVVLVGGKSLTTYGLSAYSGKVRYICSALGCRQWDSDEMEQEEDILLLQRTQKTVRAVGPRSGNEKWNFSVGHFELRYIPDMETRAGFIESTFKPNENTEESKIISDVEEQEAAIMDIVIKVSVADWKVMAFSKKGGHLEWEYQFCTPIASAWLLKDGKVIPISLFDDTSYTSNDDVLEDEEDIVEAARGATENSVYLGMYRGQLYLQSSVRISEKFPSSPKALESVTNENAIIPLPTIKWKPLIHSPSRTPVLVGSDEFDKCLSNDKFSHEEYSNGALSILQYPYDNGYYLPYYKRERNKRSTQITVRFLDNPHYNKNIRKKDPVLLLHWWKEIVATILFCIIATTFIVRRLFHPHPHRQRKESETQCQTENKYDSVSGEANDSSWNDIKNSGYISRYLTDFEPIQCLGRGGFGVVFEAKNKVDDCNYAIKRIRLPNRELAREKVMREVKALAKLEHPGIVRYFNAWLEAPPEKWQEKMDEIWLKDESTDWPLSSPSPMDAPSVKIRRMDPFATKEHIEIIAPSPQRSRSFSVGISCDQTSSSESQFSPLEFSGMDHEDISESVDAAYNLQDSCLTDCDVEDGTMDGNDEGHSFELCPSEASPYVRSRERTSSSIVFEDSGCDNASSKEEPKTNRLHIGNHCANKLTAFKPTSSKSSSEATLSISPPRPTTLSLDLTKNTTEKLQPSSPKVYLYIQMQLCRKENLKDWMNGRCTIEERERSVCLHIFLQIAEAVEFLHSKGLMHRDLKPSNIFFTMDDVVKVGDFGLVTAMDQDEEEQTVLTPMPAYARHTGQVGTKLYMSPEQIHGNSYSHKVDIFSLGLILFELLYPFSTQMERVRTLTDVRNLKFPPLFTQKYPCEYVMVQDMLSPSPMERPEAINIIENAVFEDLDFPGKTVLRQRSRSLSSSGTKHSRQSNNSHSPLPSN
Assay [10] deals with T2, Eukaryotic translation initiation factor 2-alpha kinase 3. Put plainly: Dose response cell-based high-throughput screening assay to measure PERK inhibition. [Related pubchem assays: 1416 ]. It counts as functional.
The target in assay [11] is T3, Histone-lysine N-methyltransferase NSD2 (Homo sapiens, UniProt O96028).
T3 sequence (O96028 whole entry): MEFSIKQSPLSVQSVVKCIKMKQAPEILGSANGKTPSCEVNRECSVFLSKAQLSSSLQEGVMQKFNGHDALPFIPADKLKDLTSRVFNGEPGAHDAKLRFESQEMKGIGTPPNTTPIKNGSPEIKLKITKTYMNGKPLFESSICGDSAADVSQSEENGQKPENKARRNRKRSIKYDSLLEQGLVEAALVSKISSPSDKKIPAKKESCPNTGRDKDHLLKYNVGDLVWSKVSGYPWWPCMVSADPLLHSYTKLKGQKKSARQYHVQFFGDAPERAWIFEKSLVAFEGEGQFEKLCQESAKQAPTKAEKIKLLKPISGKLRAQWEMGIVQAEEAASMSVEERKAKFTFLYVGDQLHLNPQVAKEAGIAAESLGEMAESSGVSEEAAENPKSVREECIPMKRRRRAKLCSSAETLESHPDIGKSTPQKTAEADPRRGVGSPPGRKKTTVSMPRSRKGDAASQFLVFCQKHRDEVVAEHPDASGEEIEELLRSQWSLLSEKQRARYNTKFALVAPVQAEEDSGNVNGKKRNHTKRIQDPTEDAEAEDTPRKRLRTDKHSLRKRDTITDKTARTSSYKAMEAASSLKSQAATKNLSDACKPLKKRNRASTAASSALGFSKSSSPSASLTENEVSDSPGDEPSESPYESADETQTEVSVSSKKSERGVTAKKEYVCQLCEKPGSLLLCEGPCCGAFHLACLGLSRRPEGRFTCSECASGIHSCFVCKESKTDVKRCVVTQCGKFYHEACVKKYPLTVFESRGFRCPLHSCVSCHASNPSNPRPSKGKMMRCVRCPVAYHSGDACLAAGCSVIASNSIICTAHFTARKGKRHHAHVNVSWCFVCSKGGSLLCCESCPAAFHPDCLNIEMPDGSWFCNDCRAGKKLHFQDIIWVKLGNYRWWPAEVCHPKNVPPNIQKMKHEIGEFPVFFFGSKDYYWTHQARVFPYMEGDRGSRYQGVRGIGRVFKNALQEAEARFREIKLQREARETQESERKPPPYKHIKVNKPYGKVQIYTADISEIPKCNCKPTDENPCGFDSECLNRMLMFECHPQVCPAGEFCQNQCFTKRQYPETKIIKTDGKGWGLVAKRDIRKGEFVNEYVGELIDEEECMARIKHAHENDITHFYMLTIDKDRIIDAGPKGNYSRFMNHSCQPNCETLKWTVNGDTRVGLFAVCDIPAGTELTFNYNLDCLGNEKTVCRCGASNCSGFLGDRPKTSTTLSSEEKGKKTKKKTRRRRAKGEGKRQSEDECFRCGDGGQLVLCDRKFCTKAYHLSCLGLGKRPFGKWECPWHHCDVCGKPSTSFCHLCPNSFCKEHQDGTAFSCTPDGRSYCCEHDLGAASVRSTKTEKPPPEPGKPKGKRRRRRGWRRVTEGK
It is filed as biochemical.

Assay [12] deals with Aspartyl aminopeptidase (Plasmodium falciparum 3D7, UniProt Q8I2J3).
Sequence of Aspartyl aminopeptidase (Q8I2J3 whole entry): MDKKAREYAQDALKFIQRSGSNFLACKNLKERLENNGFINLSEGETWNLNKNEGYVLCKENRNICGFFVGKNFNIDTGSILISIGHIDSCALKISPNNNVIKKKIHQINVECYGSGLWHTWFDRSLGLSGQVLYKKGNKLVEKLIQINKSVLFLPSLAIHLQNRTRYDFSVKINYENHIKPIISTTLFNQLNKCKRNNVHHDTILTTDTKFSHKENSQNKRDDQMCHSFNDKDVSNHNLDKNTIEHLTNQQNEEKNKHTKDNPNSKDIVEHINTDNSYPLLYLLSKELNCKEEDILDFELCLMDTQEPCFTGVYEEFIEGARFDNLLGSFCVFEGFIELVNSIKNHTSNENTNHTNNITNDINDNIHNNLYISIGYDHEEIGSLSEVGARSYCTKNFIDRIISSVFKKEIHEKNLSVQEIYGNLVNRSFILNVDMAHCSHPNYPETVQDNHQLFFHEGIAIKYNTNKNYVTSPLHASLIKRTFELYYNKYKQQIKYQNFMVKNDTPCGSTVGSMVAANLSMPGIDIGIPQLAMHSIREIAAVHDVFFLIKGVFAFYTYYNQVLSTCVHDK
Assay [13] addresses Procathepsin L (Homo sapiens, UniProt P07711).
Assay [14] has as its target Induced myeloid leukemia cell differentiation protein Mcl-1 (Homo sapiens, UniProt Q07820). The assay is described as follows: MCL1-BIM BH3 interaction inhibitors, dose response, biochemical, fluorescence polarization, BIM-BH3 peptide, 1536-well (AID 2217). On the technique in general: Polarisation of emitted light reports the rotation of a fluorescent probe.
Assay [15] concerns the target T4, Rac GTPase-activating protein 1 (Homo sapiens, UniProt Q9H0H5).
T4 sequence (Q9H0H5 whole entry): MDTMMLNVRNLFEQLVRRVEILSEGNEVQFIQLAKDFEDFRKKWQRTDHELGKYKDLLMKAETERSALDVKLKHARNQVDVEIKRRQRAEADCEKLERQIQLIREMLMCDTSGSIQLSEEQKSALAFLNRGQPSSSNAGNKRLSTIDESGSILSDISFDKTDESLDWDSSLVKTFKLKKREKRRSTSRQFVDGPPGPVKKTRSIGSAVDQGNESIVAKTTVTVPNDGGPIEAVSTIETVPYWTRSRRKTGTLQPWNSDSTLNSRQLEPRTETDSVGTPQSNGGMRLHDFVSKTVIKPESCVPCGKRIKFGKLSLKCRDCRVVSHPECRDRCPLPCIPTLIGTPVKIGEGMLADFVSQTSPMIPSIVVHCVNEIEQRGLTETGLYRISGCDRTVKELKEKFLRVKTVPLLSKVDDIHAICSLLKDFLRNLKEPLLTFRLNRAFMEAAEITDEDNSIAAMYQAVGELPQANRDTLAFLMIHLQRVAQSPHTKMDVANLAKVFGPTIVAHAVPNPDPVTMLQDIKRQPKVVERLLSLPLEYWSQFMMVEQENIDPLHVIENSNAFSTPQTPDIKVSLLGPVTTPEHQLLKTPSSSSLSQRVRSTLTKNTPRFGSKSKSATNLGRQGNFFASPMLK
Put plainly: MgcRacGAP GTPase-activating activity inhibitors, confirmation, biochemical, ADP Hunter fluorescence, primary and confirmatory (AID 624330). It counts as functional.

In assay [16] the target is T5, Mannose-6-phosphate isomerase (Homo sapiens, UniProt P34949).
T5 sequence (P34949 whole entry): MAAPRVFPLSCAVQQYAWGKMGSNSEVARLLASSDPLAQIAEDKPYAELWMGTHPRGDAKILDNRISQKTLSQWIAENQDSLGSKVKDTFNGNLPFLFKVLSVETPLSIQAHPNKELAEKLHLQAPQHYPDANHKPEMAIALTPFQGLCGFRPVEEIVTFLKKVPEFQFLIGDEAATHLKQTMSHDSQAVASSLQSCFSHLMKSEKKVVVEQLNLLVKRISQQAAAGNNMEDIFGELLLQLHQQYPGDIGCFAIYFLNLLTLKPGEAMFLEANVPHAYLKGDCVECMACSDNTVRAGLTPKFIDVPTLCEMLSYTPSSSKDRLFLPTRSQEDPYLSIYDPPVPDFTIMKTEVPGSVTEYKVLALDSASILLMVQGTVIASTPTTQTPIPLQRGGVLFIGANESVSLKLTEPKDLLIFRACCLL
The assay is described as follows: human PMI inhibitors, high substrate, primary screen, biochemical, fluorescence intensity, high mannose 6-phosphate (AID 1220).

Assay [17] concerns the target Dual specificity tyrosine-phosphorylation-regulated kinase 1A (Rattus norvegicus, UniProt Q63470). It is filed as biochemical, Homo sapiens.
Assay [18] has as its target T5, Mannose-6-phosphate isomerase. The assay is described as follows: inhibitors of human PMI, primary screen, biochemical, fluorescence intensity, coupled assay (AID 1209).
Assay [19] concerns the target Bcl-2-like protein 1 (Homo sapiens, UniProt Q07817). The assay is described as follows: BCL-XL inhibitors, dose response, selectivity assay for MCL1 inhibitor project, biochemical, fluorescence polarization, 1536-well (AID 2218).
Assay [20] has as its target Large T antigen (Simian virus 40, UniProt P03070). It is filed as functional, Betapolyomavirus macacae.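 Also: Confirmatory-stage PubChem screen for compounds that inhibit SV40 T antigen.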

Structures are written as SMILES. The source made the active and inactive calls. Where only a bound is given, the exact number is not on record here.

Sequence of Interleukin-8 (P10145 whole entry): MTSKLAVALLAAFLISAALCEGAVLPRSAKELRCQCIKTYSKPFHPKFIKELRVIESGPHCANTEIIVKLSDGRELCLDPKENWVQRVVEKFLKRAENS
Sequence of Bcl-2-like protein 1 (Q07817 whole entry): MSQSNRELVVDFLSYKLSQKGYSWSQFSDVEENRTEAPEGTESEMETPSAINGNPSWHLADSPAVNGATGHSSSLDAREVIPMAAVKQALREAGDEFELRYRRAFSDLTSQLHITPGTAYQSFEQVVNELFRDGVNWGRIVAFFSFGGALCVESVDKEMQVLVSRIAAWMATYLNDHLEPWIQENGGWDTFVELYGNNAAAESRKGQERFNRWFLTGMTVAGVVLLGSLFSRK
Sequence of Large T antigen (P03070 whole entry): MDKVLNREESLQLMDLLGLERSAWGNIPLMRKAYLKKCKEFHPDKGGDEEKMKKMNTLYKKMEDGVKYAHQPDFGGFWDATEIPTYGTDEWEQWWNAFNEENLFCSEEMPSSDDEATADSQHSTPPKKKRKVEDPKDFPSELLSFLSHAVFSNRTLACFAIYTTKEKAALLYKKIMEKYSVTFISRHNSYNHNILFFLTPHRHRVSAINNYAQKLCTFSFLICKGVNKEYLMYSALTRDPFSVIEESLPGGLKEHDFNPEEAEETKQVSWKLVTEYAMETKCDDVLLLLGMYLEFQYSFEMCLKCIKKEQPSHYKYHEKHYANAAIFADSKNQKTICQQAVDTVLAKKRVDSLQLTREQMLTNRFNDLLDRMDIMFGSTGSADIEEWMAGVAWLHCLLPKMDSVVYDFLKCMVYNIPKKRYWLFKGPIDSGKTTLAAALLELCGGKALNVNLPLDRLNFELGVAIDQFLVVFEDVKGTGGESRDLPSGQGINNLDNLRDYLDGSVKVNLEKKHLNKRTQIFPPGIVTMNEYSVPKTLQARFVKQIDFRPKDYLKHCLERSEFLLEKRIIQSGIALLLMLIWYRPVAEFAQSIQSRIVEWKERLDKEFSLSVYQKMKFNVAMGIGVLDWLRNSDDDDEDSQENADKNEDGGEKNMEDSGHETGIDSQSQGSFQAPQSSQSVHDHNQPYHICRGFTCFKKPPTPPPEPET
Sequence of Induced myeloid leukemia cell differentiation protein Mcl-1 (Q07820 whole entry): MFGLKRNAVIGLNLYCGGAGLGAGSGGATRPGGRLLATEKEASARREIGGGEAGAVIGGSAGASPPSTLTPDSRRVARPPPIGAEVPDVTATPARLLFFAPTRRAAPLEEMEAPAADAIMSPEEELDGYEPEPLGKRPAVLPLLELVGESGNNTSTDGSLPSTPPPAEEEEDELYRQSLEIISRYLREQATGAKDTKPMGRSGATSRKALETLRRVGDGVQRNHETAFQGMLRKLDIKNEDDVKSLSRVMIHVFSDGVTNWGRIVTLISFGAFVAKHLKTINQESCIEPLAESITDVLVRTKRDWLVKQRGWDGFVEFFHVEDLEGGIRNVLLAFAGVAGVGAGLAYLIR
Sequence of Procathepsin L (P07711 whole entry): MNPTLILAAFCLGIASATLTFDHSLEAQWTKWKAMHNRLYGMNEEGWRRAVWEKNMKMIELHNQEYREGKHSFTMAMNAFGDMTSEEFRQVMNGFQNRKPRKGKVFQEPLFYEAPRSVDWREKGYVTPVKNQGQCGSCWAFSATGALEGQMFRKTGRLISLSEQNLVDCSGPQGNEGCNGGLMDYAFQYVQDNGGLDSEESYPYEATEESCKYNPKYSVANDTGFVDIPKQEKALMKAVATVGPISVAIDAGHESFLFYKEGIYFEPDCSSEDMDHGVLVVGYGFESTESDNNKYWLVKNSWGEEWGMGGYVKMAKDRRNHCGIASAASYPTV

Broadly, the AC50 is the concentration at which the activity in the assay is half-maximal. As usually defined, the EC50 is the midpoint of the concentration-response curve. The IC50 is the concentration at which inhibition is half-maximal. As usually defined, the CC50 is the concentration at which the toxic effect on the cells reaches its halfway point. `Cn1cc([N+](=O)[O-])c(C(=O)Nc2ccc(C3CCCCC3)cc2)n1`: the results for the AC50 in assay [1] and in assay [3] were > 100 µM (inactive) and 18.5 µM (active), respectively. Further, the EC50 is 12.1 µM (not active) in assay [2] and 9.71 µM (active) in assay [6]. In addition, the results for the IC50 in assay [4] and in assay [7] were 8.17 µM (active) and 9.92 µM (active), respectively. The CC50 in assay [5] is > 25 µM (active).
Regarding `COc1ccc(S(=O)(=O)n2c(N)nc3ccccc32)cc1`, in assay [8], the IC50 is > 5 µM (inactive).
As to `C=CCNC(=O)Nc1ccc(F)cc1F`, the concentration giving a half-maximal response (EC50) in assay [9] and in assay [10] was > 55.7 µM (not active) each time.
Turning to `Oc1ccc(C2=Nn3c(nnc3-c3ccco3)SC2)cc1O`, the AC50 in assay [11] is 6.4 µM (active); in [17], 4.01 µM (active). Further, the half-inhibitory concentration (IC50) in assay [12] was 1.84 µM (active); in [13], > 59.6 µM (not active); in assay [14] it was 6.16 µM (active); in [15] it was 12.2 µM (active); in assay [16], > 50 µM (not active); in assay [18], > 50 µM (not active). Further, the IC50 in assay [19] is 68.7 µM (not active); in assay [20], 3.26 µM (active).

The values above are taken from ChEMBL document CHEMBL1201862, “PubChem BioAssay data set” (2004).
